Reference: article PMC5218480 (PLoS ONE, 2017)

Test system: MV-4-11 cells
Assay: Gene expression microarray analysis (Affymetrix PrimeView) and GSEA
Type: cell-based, human
Parameters: RFU PODN (11730768_x_at) / Fold change /veh PODN (11730768_x_at) / RFU LINC00158 (11744669_a_at) / Fold change /veh LINC00158 (11744669_a_at) / RFU DUSP10 (11751237_a_at) / Fold change /veh DUSP10 (11751237_a_at) / RFU ID3 (11757404_x_at) / Fold change /veh ID3 (11757404_x_at) / RFU PLEKHG5 (11737974_s_at) / Fold change /veh PLEKHG5 (11737974_s_at) / RFU LRRC4B (11730491_at) / Fold change /veh LRRC4B (11730491_at) / RFU GIMAP4 (11747438_a_at) / Fold change /veh GIMAP4 (11747438_a_at) / RFU KRT8 (11758183_x_at) / Fold change /veh KRT8 (11758183_x_at) / RFU CNN1 (11734310_a_at) / Fold change /veh CNN1 (11734310_a_at) / RFU VPS37D (11726825_at) / Fold change /veh VPS37D (11726825_at) / RFU C10orf10 (11716522_x_at) / Fold change /veh C10orf10 (11716522_x_at) / RFU KIR2DL2 /// KIR2DL4 /// KIR2DL5A /// KIR2DL5B /// KIR2DS1 /// KIR2DS2 /// KIR2DS3 /// KIR2DS4 /// KIR3DL3 /// KIR3DL3 /// KIR3DS1 (11738374_at) / Fold change /veh KIR2DL2 /// KIR2DL4 /// KIR2DL5A /// KIR2DL5B /// KIR2DS1 /// KIR2DS2 /// KIR2DS3 /// KIR2DS4 /// KIR3DL3 /// KIR3DL3 /// KIR3DS1 (11738374_at) / RFU C1QL1 (11718748_at) / Fold change /veh C1QL1 (11718748_at) / RFU TMPRSS4 (11747572_a_at) / Fold change /veh TMPRSS4 (11747572_a_at) / RFU HAMP (11756126_x_at) / Fold change /veh HAMP (11756126_x_at) / RFU RNFT2 (11725882_a_at) / Fold change /veh RNFT2 (11725882_a_at) / RFU NR4A2 (11747474_a_at) / Fold change /veh NR4A2 (11747474_a_at) / RFU ABCC12 (11746883_a_at) / Fold change /veh ABCC12 (11746883_a_at) / RFU TMEM136 (11760407_x_at) / Fold change /veh TMEM136 (11760407_x_at) / RFU CLDN22 /// WWC2 (11732394_at) / Fold change /veh CLDN22 /// WWC2 (11732394_at) / RFU HLA-DPB1 (11760878_x_at) / Fold change /veh HLA-DPB1 (11760878_x_at) / RFU SPINT1 (11716480_a_at) / Fold change /veh SPINT1 (11716480_a_at) / RFU GAP43 (11754022_s_at) / Fold change /veh GAP43 (11754022_s_at) / RFU A4GNT (11735810_at) / Fold change /veh A4GNT (11735810_at) / RFU PRB3 (11715151_x_at) / Fold change /veh PRB3 (11715151_x_at) / RFU TUBB4B (11761932_at) / Fold change /veh TUBB4B (11761932_at) / RFU CAPN14 (11732068_a_at) / Fold change /veh CAPN14 (11732068_a_at) / RFU TMCC2 (11721928_a_at) / Fold change /veh TMCC2 (11721928_a_at) / RFU IRGQ (11745062_a_at) / Fold change /veh IRGQ (11745062_a_at) / RFU FAM174B (11720279_a_at) / Fold change /veh FAM174B (11720279_a_at) / RFU TMPRSS4 (11748680_a_at) / Fold change /veh TMPRSS4 (11748680_a_at) / RFU FAM212B (11763350_a_at) / Fold change /veh FAM212B (11763350_a_at) / RFU PLEKHG5 (11743358_a_at) / Fold change /veh PLEKHG5 (11743358_a_at) / RFU ZSCAN30 (11745921_a_at) / Fold change /veh ZSCAN30 (11745921_a_at) / RFU CMKLR1 (11741424_a_at) / Fold change /veh CMKLR1 (11741424_a_at) / RFU LOC101060620 /// MAPK8IP1 (11723275_at) / Fold change /veh LOC101060620 /// MAPK8IP1 (11723275_at) / RFU SPTSSB (11747773_x_at) / Fold change /veh SPTSSB (11747773_x_at) / RFU PRSS12 (11739890_at) / Fold change /veh PRSS12 (11739890_at) / RFU BIN1 (11741810_x_at) / Fold change /veh BIN1 (11741810_x_at) / RFU WNT11 (11732464_a_at) / Fold change /veh WNT11 (11732464_a_at) / RFU C10orf10 (11716521_a_at) / Fold change /veh C10orf10 (11716521_a_at) / RFU C5orf56 (11738089_at) / Fold change /veh C5orf56 (11738089_at) / RFU CYB561 (11721691_x_at) / Fold change /veh CYB561 (11721691_x_at) / RFU ANKRD19P (11752326_a_at) / Fold change /veh ANKRD19P (11752326_a_at) / RFU OR2T12 /// OR2T33 /// OR2T8 (11738714_s_at) / Fold change /veh OR2T12 /// OR2T33 /// OR2T8 (11738714_s_at) / RFU VCAN (11748164_a_at) / Fold change /veh VCAN (11748164_a_at) / RFU JSRP1 (11732532_at) / Fold change /veh JSRP1 (11732532_at) / RFU KRTAP10-11 (11738290_x_at) / Fold change /veh KRTAP10-11 (11738290_x_at) / RFU MYO3A (11730013_a_at) / Fold change /veh MYO3A (11730013_a_at) / RFU EBF3 (11725865_a_at) / Fold change /veh EBF3 (11725865_a_at) / RFU CAMK2N1 (11719241_x_at) / Fold change /veh CAMK2N1 (11719241_x_at) / RFU C5orf56 (11738088_a_at) / Fold change /veh C5orf56 (11738088_a_at) / RFU OLFML3 (11715873_a_at) / Fold change /veh OLFML3 (11715873_a_at) / RFU LOC100653217 /// NTM (11731650_a_at) / Fold change /veh LOC100653217 /// NTM (11731650_a_at) / RFU MAPK11 (11762145_a_at) / Fold change /veh MAPK11 (11762145_a_at) / RFU FIZ1 (11724087_x_at) / Fold change /veh FIZ1 (11724087_x_at) / RFU OASL (11726364_x_at) / Fold change /veh OASL (11726364_x_at) / RFU SOX15 (11748057_x_at) / Fold change /veh SOX15 (11748057_x_at) / RFU CD79A (11719716_a_at) / Fold change /veh CD79A (11719716_a_at) / RFU HIST1H1D (11736915_at) / Fold change /veh HIST1H1D (11736915_at) / RFU CASKIN2 (11723855_a_at) / Fold change /veh CASKIN2 (11723855_a_at) / RFU LOC730098 (11760151_x_at) / Fold change /veh LOC730098 (11760151_x_at) / RFU OR4N2 (11742367_at) / Fold change /veh OR4N2 (11742367_at) / RFU PRRT2 (11749266_a_at) / Fold change /veh PRRT2 (11749266_a_at) / RFU SNX32 (11753110_a_at) / Fold change /veh SNX32 (11753110_a_at) / RFU CDHR5 (11726645_a_at) / Fold change /veh CDHR5 (11726645_a_at) / RFU RCAN1 (11760418_a_at) / Fold change /veh RCAN1 (11760418_a_at) / RFU FAM167A (11723789_a_at) / Fold change /veh FAM167A (11723789_a_at) / RFU FAM26E (11764081_at) / Fold change /veh FAM26E (11764081_at) / RFU ISYNA1 (11749810_s_at) / Fold change /veh ISYNA1 (11749810_s_at) / RFU ACY1 (11761880_at) / Fold change /veh ACY1 (11761880_at) / RFU 11764098_at / Fold change /veh 11764098_at / RFU SAMD14 (11745864_x_at) / Fold change /veh SAMD14 (11745864_x_at) / RFU NPB (11741838_a_at) / Fold change /veh NPB (11741838_a_at) / RFU TMPRSS6 (11731388_a_at) / Fold change /veh TMPRSS6 (11731388_a_at) / RFU KRTAP10-2 (11738614_at) / Fold change /veh KRTAP10-2 (11738614_at) / RFU ARHGAP8 /// PRR5-ARHGAP8 (11727945_x_at) / Fold change /veh ARHGAP8 /// PRR5-ARHGAP8 (11727945_x_at) / RFU KRTAP5-7 /// NADSYN1 (11734609_at) / Fold change /veh KRTAP5-7 /// NADSYN1 (11734609_at) / RFU RASL12 (11751679_a_at) / Fold change /veh RASL12 (11751679_a_at) / RFU CDKN2B (11736163_a_at) / Fold change /veh CDKN2B (11736163_a_at) / RFU PRF1 (11729649_at) / Fold change /veh PRF1 (11729649_at) / RFU, ZNF638 /// ZNF638-IT1 / Fold change vs veh, ZNF638 /// ZNF638-IT1 / RFU, PANK3 / Fold change vs veh, PANK3 / RFU, SH3YL1 / Fold change vs veh, SH3YL1 / RFU, ZEB2 / Fold change vs veh, ZEB2 / RFU, NRIP1 / Fold change vs veh, NRIP1 / RFU, PTTG1IP / Fold change vs veh, PTTG1IP / RFU, CAPN2 / Fold change vs veh, CAPN2 / RFU, MED14 / Fold change vs veh, MED14 / RFU, SNORA58 / Fold change vs veh, SNORA58 / RFU, C1orf63 / Fold change vs veh, C1orf63 / RFU, LRRFIP1 / Fold change vs veh, LRRFIP1 / RFU, NDUFAF7 / Fold change vs veh, NDUFAF7 / RFU, SLC12A2 / Fold change vs veh, SLC12A2 / RFU, IBTK / Fold change vs veh, IBTK / RFU, ESF1 / Fold change vs veh, ESF1 / Fold change vs veh, TMEM50B / RFU, TAOK1 / Fold change vs veh, TAOK1 / RFU, ACBD3 / Fold change vs veh, ACBD3 / RFU, TMA16 / Fold change vs veh, TMA16 / RFU, RWDD3 / Fold change vs veh, RWDD3 / RFU, BCAT1 / Fold change vs veh, BCAT1 / RFU, EDEM3 / Fold change vs veh, EDEM3 / RFU, TMEM33 / Fold change vs veh, TMEM33 / RFU, WDR75 / Fold change vs veh, WDR75 / RFU, AHCTF1 / Fold change vs veh, AHCTF1 / RFU, TFRC / Fold change vs veh, TFRC / RFU, ZDHHC17 / Fold change vs veh, ZDHHC17 / RFU, NOM1 / Fold change vs veh, NOM1 / RFU, ARL8B / Fold change vs veh, ARL8B / RFU, ZBTB11 / Fold change vs veh, ZBTB11 / RFU, TAMM41 / Fold change vs veh, TAMM41 / RFU, KIAA1704 /// LOC100996395 / Fold change vs veh, KIAA1704 /// LOC100996395 / RFU, ING1 / Fold change vs veh, ING1 / RFU, TRMT61B / Fold change vs veh, TRMT61B / RFU, FUBP3 / Fold change vs veh, FUBP3 / RFU, TP53 / Fold change vs veh, TP53 / RFU, TNKS2 / Fold change vs veh, TNKS2 / RFU, ZFP14 / Fold change vs veh, ZFP14 / RFU, ACTR2 / Fold change vs veh, ACTR2 / RFU, PPP3R1 / Fold change vs veh, PPP3R1 / RFU, PIK3R1 / Fold change vs veh, PIK3R1 / RFU, HNRNPA1 / Fold change vs veh, HNRNPA1 / RFU, RNF170 / Fold change vs veh, RNF170 / RFU, ZNF28 / Fold change vs veh, ZNF28 / RFU, RNGTT / Fold change vs veh, RNGTT / RFU, OGT / Fold change vs veh, OGT / RFU, BRD1 / Fold change vs veh, BRD1 / RFU, MARS / Fold change vs veh, MARS / RFU, ZNF655 / Fold change vs veh, ZNF655 / RFU, FAHD1 / Fold change vs veh, FAHD1 / RFU, BDP1 / Fold change vs veh, BDP1 / RFU, LRRCC1 / Fold change vs veh, LRRCC1 / RFU, ARID1A / Fold change vs veh, ARID1A / RFU, ZNF146 / Fold change vs veh, ZNF146 / RFU, ZNF330 / Fold change vs veh, ZNF330 / RFU, GPN3 / Fold change vs veh, GPN3 / RFU, C9orf123 / Fold change vs veh, C9orf123 / RFU, N4BP2L2 / Fold change vs veh, N4BP2L2 / RFU, ARFIP1 / Fold change vs veh, ARFIP1 / RFU, FAM179B / Fold change vs veh, FAM179B / RFU, BCL10 / Fold change vs veh, BCL10 / RFU, UHRF1BP1L / Fold change vs veh, UHRF1BP1L / RFU, BET1 / Fold change vs veh, BET1 / RFU, CNOT2 / Fold change vs veh, CNOT2 / RFU, ZNF268 / Fold change vs veh, ZNF268 / Fold change vs veh, ZNF507 / RFU, DGCR2 / Fold change vs veh, DGCR2 / RFU, WDSUB1 / Fold change vs veh, WDSUB1 / Fold change vs veh, HSP90B1 /// MIR3652 / RFU, ADSS / Fold change vs veh, ADSS / RFU, GK / Fold change vs veh, GK / RFU, ZNF148 / Fold change vs veh, ZNF148 / RFU, TAF9 / Fold change vs veh, TAF9 / RFU, SLC1A5 / Fold change vs veh, SLC1A5 / RFU, SLMO2 / Fold change vs veh, SLMO2 / RFU, ABCC4 / Fold change vs veh, ABCC4 / RFU, LOC101060439 /// RAP1B / Fold change vs veh, LOC101060439 /// RAP1B / RFU, RFX7 / Fold change vs veh, RFX7 / RFU, GTPBP10 / Fold change vs veh, GTPBP10 / RFU, CNEP1R1 / Fold change vs veh, CNEP1R1 / RFU, BIVM-ERCC5 /// ERCC5 / Fold change vs veh, BIVM-ERCC5 /// ERCC5 / RFU, ILF3 / Fold change vs veh, ILF3 / RFU 11762660_at / Fold change /veh 11762660_at / RFU VCAN (11757783_s_at) / Fold change /veh VCAN (11757783_s_at) / RFU DDX43 (11728927_at) / Fold change /veh DDX43 (11728927_at) / RFU KRT8 (11758188_x_at) / Fold change /veh KRT8 (11758188_x_at) / RFU NKD1 (11759106_at) / Fold change /veh NKD1 (11759106_at) / RFU SRD5A1 (11742802_a_at) / Fold change /veh SRD5A1 (11742802_a_at) / RFU TPSAB1 /// TPSB2 (11721975_s_at) / Fold change /veh TPSAB1 /// TPSB2 (11721975_s_at) / RFU GSTM3 (11746129_a_at) / Fold change /veh GSTM3 (11746129_a_at) / RFU IL23R (11737362_x_at) / Fold change /veh IL23R (11737362_x_at) / RFU TMEM51 (11727254_a_at) / Fold change /veh TMEM51 (11727254_a_at) / RFU PIWIL2 (11732686_x_at) / Fold change /veh PIWIL2 (11732686_x_at) / RFU ORM1 (11744905_x_at) / Fold change /veh ORM1 (11744905_x_at) / RFU CCDC152 (11743942_at) / Fold change /veh CCDC152 (11743942_at) / RFU ECM1 (11717891_a_at) / Fold change /veh ECM1 (11717891_a_at) / RFU IL23R (11748794_a_at) / Fold change /veh IL23R (11748794_a_at) / RFU TNFAIP8L3 (11732012_x_at) / Fold change /veh TNFAIP8L3 (11732012_x_at) / RFU MBOAT4 (11741988_at) / Fold change /veh MBOAT4 (11741988_at) / RFU 11764193_at / Fold change /veh 11764193_at / RFU TMEM53 (11763286_at) / Fold change /veh TMEM53 (11763286_at) / RFU MAGEB2 (11727129_at) / Fold change /veh MAGEB2 (11727129_at) / RFU TMEM200A (11744735_a_at) / Fold change /veh TMEM200A (11744735_a_at) / RFU CCDC152 (11751479_a_at) / Fold change /veh CCDC152 (11751479_a_at) / RFU FAM211A (11726209_a_at) / Fold change /veh FAM211A (11726209_a_at) / RFU RGS16 (11746705_a_at) / Fold change /veh RGS16 (11746705_a_at) / RFU VCAN (11755009_s_at) / Fold change /veh VCAN (11755009_s_at) / RFU RHOB (11743442_s_at) / Fold change /veh RHOB (11743442_s_at) / RFU RGS16 (11720943_a_at) / Fold change /veh RGS16 (11720943_a_at) / RFU RGS16 (11720944_at) / Fold change /veh RGS16 (11720944_at) / RFU, VPS4B / Fold change vs veh, VPS4B / RFU, CREB1 / Fold change vs veh, CREB1 / RFU, DNAJC13 / Fold change vs veh, DNAJC13 / RFU, GNAQ / Fold change vs veh, GNAQ / RFU, CDK5R1 / Fold change vs veh, CDK5R1 / RFU, ZRANB3 / Fold change vs veh, ZRANB3 / RFU, CUL4A / Fold change vs veh, CUL4A / RFU, CCNY / Fold change vs veh, CCNY / RFU, UFL1 / Fold change vs veh, UFL1 / RFU, COG3 / Fold change vs veh, COG3 / RFU, DIAPH2 / Fold change vs veh, DIAPH2 / RFU, SKA2 / Fold change vs veh, SKA2 / RFU, AFF3 / Fold change vs veh, AFF3 / RFU, LMF1 / Fold change vs veh, LMF1 / RFU, IPO11 / Fold change vs veh, IPO11 / RFU, DFFB / Fold change vs veh, DFFB / RFU, FOXP1 / Fold change vs veh, FOXP1 / RFU, CARD8 / Fold change vs veh, CARD8 / RFU, STRN3 / Fold change vs veh, STRN3 / RFU, ADK / Fold change vs veh, ADK / RFU, RASSF2 / Fold change vs veh, RASSF2 / RFU, WIPF1 / Fold change vs veh, WIPF1 / RFU, LARP1B / Fold change vs veh, LARP1B / RFU, RASA1 / Fold change vs veh, RASA1 / RFU, RB1 / Fold change vs veh, RB1 / RFU, PPFIA1 / Fold change vs veh, PPFIA1 / RFU, MAT2A / Fold change vs veh, MAT2A / RFU, CCT5 / Fold change vs veh, CCT5 / RFU, WDR92 / Fold change vs veh, WDR92 / RFU, CUX1 / Fold change vs veh, CUX1 / RFU, TTC7A / Fold change vs veh, TTC7A / RFU, TMEM135 / Fold change vs veh, TMEM135 / RFU, DEPTOR / Fold change vs veh, DEPTOR / RFU, CPM / Fold change vs veh, CPM / RFU, DNAJB6 / Fold change vs veh, DNAJB6 / RFU, CACNA2D3 / Fold change vs veh, CACNA2D3 / RFU, DTX4 / Fold change vs veh, DTX4 / RFU, TFCP2 / Fold change vs veh, TFCP2 / RFU, GMCL1 /// GMCL1P1 / Fold change vs veh, GMCL1 /// GMCL1P1 / RFU, AEBP2 / Fold change vs veh, AEBP2 / RFU, SNHG1 /// SNORD22 /// SNORD25 /// SNORD26 /// SNORD27 /// SNORD28 /// SNORD29 /// SNORD31 / Fold change vs veh, SNHG1 /// SNORD22 /// SNORD25 /// SNORD26 /// SNORD27 /// SNORD28 /// SNORD29 /// SNORD31 / Fold change (Aza/veh), C12orf56 (ProbeSet 11735607_a_at) / Fold change (ACY-1035/veh), C12orf56 (ProbeSet 11735607_a_at) / Fold change (Aza/veh), FGFR1OP (ProbeSet 11751329_s_at) / Fold change (ACY-1035/veh), FGFR1OP (ProbeSet 11751329_s_at) / Fold change (Aza/veh), VPS36 (ProbeSet 11739960_a_at) / Fold change (ACY-1035/veh), VPS36 (ProbeSet 11739960_a_at) / RFU SYPL1 (11715823_x_at) / Fold change /veh SYPL1 (11715823_x_at) / RFU IGFBP7 (11715501_s_at) / Fold change /veh IGFBP7 (11715501_s_at) / RFU REEP3 (11722064_at) / Fold change /veh REEP3 (11722064_at) / RFU IGLL1 (11728026_x_at) / Fold change /veh IGLL1 (11728026_x_at): dose or concentration left out as unconfirmed
Settings: MV-4-11 cells, 48 hours

Nc1ccc(-c2cccs2)cc1NC(=O)c1ccc2c(c1)cc(C1CC1)n2CCN1CCOCC1 [ACY-1035]
Fold change /veh WNT11 (11732464_a_at): 1.11
